Measurements as given in patent publication US6524842B1, “Biodegradation of gasoline oxygenates” (Envirogen, Inc., priority 2000, dated 2003).
Like-named read-outs stand apart in the source and are kept apart here.

Key:
strain ENV735 [1] = experiment: Growth substrates for ENV735; assay type: cell-based, Hydrogenophaga flava
strain ENV735 [2] = experiment: [14C]MTBE mineralization to 14CO2; assay type: cell-based, Hydrogenophaga flava; details: YE-grown cells, 10 mg/L, within 24 hr
Excerpt: Cells were collected by centrifugation, washed, and suspended in BSM to an OD550 of 1.0. […] At timed intervals air was passed through the samples and organic compounds and ^14CO2 in the effluent air were trapped (Marinucci, A. C. and R. Bartha, “Apparatus for monitoring the mineralization of volatile ^14C-labeled compounds”, Applied and Environmental Microbiology, 38:1020-1022, (1979)). Oxosol C14 (National Diagnostics, Atlanta, Ga.) served as a CO2 trapping solution and liquid scintillation cocktail. The amount of ^14CO2 produced was quantified by liquid scintillation counting.

[3] = tested on: anaerobic sediment samples; details: the one active anaerobic sediment sample; cited from earlier work
[4] = tested on: ENV 735-containing culture from MBR1; experiment: Fluid bed bioreactor (FBR) MTBE degradation; details: flow rate increased 3-fold, 1 hr HRT
Description: A laboratory-scale FBR was constructed from a glass column with Teflon and stainless steel tubing and fittings to minimize abiotic losses. […] The carbon was fluidized to an expanded bed height of 125% of the original bed height by using a gear pump in the recycle line. Contaminated water was fed at a rate of 5.6 to 17 mL/min using a peristaltic pump, corresponding to hydraulic retention times (HRTs) of approximately 3 to 1 h, respectively. The HRT was calculated based on expanded bed volume and feed flow rate (assumes no significant biodegradation occurred in other wetted areas of the reactor).

ENV 735 = experiment: Membrane bioreactor (MBR1, MBR2) MTBE degradation; parameters: species or system Hydrogenophaga flava
Description: A calculated solids retention time (SRT) of 160 days was maintained by removing a portion of the reactor contents each day. The dissolved oxygen concentration in the reactor was maintained at ˜2 mg/L by adding air.

strain ENV735 [5] = experiment: MTBE degradation assays with ENV735 cells; assay type: cell-based, Hydrogenophaga flava
[6] = tested on: hydrogen-oxidizing microorganism; experiment: Bioreactor laboratory testing, continuous operation; details: hydraulic retention time of 2.5 hr to 3 days
Excerpt: Batch operation can be initiated by inoculating the reactor with the hydrogen-oxidizing microorganism and then adding tertiary butyl alcohol, for example, to a final concentration of from 0.1 to 1% (v/v). The organisms are aerated and allowed to grow until no tertiary butyl alcohol remains in the culture medium. Additional tertiary butyl alcohol can then be added to further increase biomass levels. After sufficient biomass is obtained, a small amount of contaminant (e.g., MTBE) can be added to acclimate the organisms. Additional contaminant can be added after depletion of the prior addition. When sufficient degradation rates are achieved, the reactor can be operated in a continuous mode. Preferably, during continuous and batch operation, the reactor should be operated at a temperature of between 25 and 37° C., with the pH in the range of 6.8 to 7.2, and a dissolved oxygen concentration >2 mg/L. Hydraulic retention time within the reactor should be adjusted to allow sufficient time for degradation of the target compound to below treatment standards. […] Furthermore, the volatile suspended solids (biomass) concentration should be maintained at a relatively high concentration, preferably from 1,000 to 30,000 mg/l depending on the contaminant loading rate.

strain ENV735 [7] = experiment: TBA degradation by ENV735 cells; assay type: cell-based, Hydrogenophaga flava
[8] = growth of ENV735 on the substrate

Molecule	Growth (strain ENV735 [1]; [8])	further results
CC(C)O [2-Propanol]	−	
COC(C)(C)C [[^14C]MTBE]		added [14C]MTBE recovered as 14CO2 (strain ENV735 [2]): Approximately 80%
CC(=O)[O-].[Na+] [Sodium acetate]	+/−	
OC[C@H]1O[C@@](CO)(O[C@H]2O[C@H](CO)[C@@H](O)[C@H](O)[C@H]2O)[C@@H](O)[C@@H]1O [Sucrose]	+++	
CCC(=O)O [Propionic acid]	−	
CO [Methanol]	−	
Casein	+	
CCC [Propane]	+/−	
COC(C)(C)C [MTBE, methyl-tert-butyl ether]	+	transformation of MTBE [3]: about 50%; removal of added MTBE [4]: > 90%; MTBE removal rate (ENV 735; MBR1, 1 d HRT, influent ˜1000 mg/L): 42 mg/L/h; MTBE removal rate (ENV 735; MBR2, influent ˜2000 mg/L): 28 mg/L/h; MTBE stripping as share of MTBE loss (ENV 735; effluent air of MBRs): < 5%; initial maximum MTBE oxidation rate (strain ENV735 [5]; 30° C., YE-grown cells, 25 mg/L MTBE): 86 nmole MTBE/min./mg total cell protein; degradation of influent MTBE [6]: > 90%
[HH] [H2, hydrogen]		effect of presence of H2 on MTBE degradation (strain ENV735 [5]; strain ENV735): not inhibited; Growth on H2 as a sole energy source (strain ENV735 [1]; strain ENV735): grew readily
CCCO [1-Propanol]	+/−	
CC(C)(O)C(=O)O [2-Hydroxy isobutyric acid]	+	
CC(=O)C(=O)O [Pyruvic acid]	+/−	
CC(C)(C)O [TBA, tertiary-butyl alcohol]		Growth (strain ENV735 [1]): +++; initial TBA degradation rate (strain ENV735 [7]): 30 nmoles TBA/min./mg cell protein
N[C@@H](CCC(=O)O)C(=O)O [Glutamic acid]	+/−	
CC(O)C(=O)O (centres unmarked) [Lactic acid]	+/−	
CCC(C)C [Iso-Pentane]	−	
